# Test results taken from patent US9453062B2, “Glucose dependent insulinotropic polypeptide analogs, pharmaceutical compositions and use thereof” (Beijing Hanmi Pharmaceutical Co., Ltd., priority 2011, dated 2016).
# Where a SMILES comes first, the peptide text is derived from it. [ ]: non-standard residue; d: D form. The star is where a group is joined. Palmitoyl = CCCCCCCCCCCCCCCC(=O)*; Aib = CC(C)(N)C(=O)O
# Legend:
# [1] = molecular target: T1, hGLP-1R (Homo sapiens, UniProt P43220); experiment: hGLP-1R-mediated cAMP induction assay in CHO cell line; format: cell-based; conditions: Table 3; for EC50: CHO hGLP1R cells; for GLP-1 Receptor Relative Potency: against native GLP-1;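 for all read-outs here: CHO cells expressing human GLP-1R, treated 30 min at 37 °C, intracellular cAMP measured by competitive fluorescent immunoassay and converted via a cAMP standard curve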
# T1 construct: expressed in transfected cells; host or cells: CHO
# T1 sequence (P43220 24-463): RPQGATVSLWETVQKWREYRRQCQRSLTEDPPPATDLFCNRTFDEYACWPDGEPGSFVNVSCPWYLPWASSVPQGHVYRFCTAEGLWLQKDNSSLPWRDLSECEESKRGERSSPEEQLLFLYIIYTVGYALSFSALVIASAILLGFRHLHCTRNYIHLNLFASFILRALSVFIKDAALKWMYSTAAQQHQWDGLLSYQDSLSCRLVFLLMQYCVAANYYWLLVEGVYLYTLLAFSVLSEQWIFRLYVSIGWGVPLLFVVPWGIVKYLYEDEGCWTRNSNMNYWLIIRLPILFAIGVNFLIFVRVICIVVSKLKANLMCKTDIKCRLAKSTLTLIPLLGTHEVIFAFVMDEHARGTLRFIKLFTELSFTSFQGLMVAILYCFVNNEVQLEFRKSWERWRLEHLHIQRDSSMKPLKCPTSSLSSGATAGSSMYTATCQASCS
# [2] = molecular target: T2, hGIPR (Homo sapiens, UniProt P48546); experiment: hGIPR-mediated cAMP induction assay in CHO cell line; format: cell-based; conditions: Table 3; for EC50: CHO hGIPR cells; for GIP Receptor Relative Potency: against native GIP
# T2 construct: expressed in transfected cells; host or cells: CHO
# T2 sequence (P48546 22-466): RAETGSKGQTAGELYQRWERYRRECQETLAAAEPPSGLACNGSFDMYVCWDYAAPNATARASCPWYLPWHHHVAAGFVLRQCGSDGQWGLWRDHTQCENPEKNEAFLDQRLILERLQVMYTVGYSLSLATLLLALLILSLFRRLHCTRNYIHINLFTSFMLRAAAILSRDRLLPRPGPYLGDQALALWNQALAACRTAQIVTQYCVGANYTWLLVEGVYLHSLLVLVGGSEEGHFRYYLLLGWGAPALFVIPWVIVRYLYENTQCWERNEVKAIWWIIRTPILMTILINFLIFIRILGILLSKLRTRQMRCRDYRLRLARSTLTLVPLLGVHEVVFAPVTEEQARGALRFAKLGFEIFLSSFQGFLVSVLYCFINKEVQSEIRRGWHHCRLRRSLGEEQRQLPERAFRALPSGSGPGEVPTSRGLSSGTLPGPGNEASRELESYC
# From the text: The cAMP in the sample or standard competes with horseradish peroxidase (HRP)-labeled cAMP conjugate for binding sites on the anti-cAMP antibodies. In the absence of cAMP, most of the HRP-cAMP conjugate is bound to the antibody. Increasing concentrations of cAMP competitively decrease the amount of bound conjugate, thus decreasing measured HRP activity.
# Assay kit: CatchPoint™ Cyclic-AMP Fluorescent Assay Kit (Molecular Devices, Product # R8088)
# Cell lines: CHO hGLP1R, CHO hGIPR
# Cell seeding: CHO hGLP1R or CHO hGIPR cells: 10,000 cells/well/100 uL at 37° C. 5% CO2 overnight.
# Gently aspirate off media and wash the cells with KRBG Buffer, 100 uL/well.
# Incubate the plate for 10 min at room temperature. Then add the KRBG buffer with 3× final concentration of the tested samples (5-foled series diluted from 5,000 nM), 50 uL/well. Incubate the plate at 37° C. 5% CO2 for 30 min.
# Add 50 uL of Lysis buffer to each well and put the plate on a shaker for 10 min.
# Place 40 uL of samples and analyze in appropriate wells. And test the cAMP concentration in each sample by following the manufacture's instruction.
# Detect the fluorescence signal at Ex: 490 nm and Em: 530 nm. Transfer the FI signal to cAMP concentration by the cAMP standard curve. The Dose-response curve and EC50 were obtained by logistic fitting of Origin 8.
Compound,EC50 [1],EC50 [2],GIP Receptor Relative Potency [2],GLP-1 Receptor Relative Potency [1]
CC[C@H](C)[C@H](NC(=O)[C@H](CO)NC(=O)[C@H](Cc1ccc(O)cc1)NC(=O)[C@H](CC(=O)O)NC(=O)[C@H](CO)NC(=O)[C@@H](NC(=O)[C@H](Cc1ccccc1)NC(=O)[C@@H](NC(=O)CNC(=O)[C@H](CCC(=O)O)NC(=O)C(C)(C)NC(=O)[C@@H](N)Cc1ccc(O)cc1)[C@@H](C)O)[C@@H](C)O)C(=O)N[C@@H](Cc1ccc(O)cc1)C(=O)N[C@@H](CCSC)C(=O)N[C@@H](CCC(=O)O)C(=O)N[C@@H](CCCCN)C(=O)N[C@@H](CCC(=O)O)C(=O)N[C@@H](C)C(=O)N[C@H](C(=O)N[C@@H](CCCNC(=N)N)C(=O)N[C@@H](CCC(=O)O)C(=O)N[C@@H](Cc1ccccc1)C(=O)N[C@H](C(=O)N[C@@H](CCC(=O)O)C(=O)N[C@@H](Cc1c[nH]c2ccccc12)C(=O)N[C@@H](CC(C)C)C(=O)N[C@H](C(=O)N[C@@H](CCCCN)C(=O)NCC(N)=O)C(C)C)[C@@H](C)CC)C(C)C [Compound 054-1] (H-Y[Aib]EGTFTSDYSIYMEKEAVREFIEWLVKG-NH2),2.99 nM,0.27 nM,77.7,
CC[C@H](C)[C@H](NC(=O)[C@H](Cc1ccccc1)NC(=O)[C@H](CCC(=O)O)NC(=O)[C@H](CCCNC(=N)N)NC(=O)[C@@H](NC(=O)[C@H](C)NC(=O)[C@H](CCC(=O)O)NC(=O)[C@H](CCCCN)NC(=O)[C@H](CCC(=O)O)NC(=O)[C@H](CCSC)NC(=O)[C@H](Cc1ccc(O)cc1)NC(=O)[C@@H](NC(=O)[C@H](CO)NC(=O)[C@H](Cc1ccc(O)cc1)NC(=O)[C@H](CC(=O)O)NC(=O)[C@H](CO)NC(=O)[C@@H](NC(=O)[C@H](Cc1ccccc1)NC(=O)[C@@H](NC(=O)CNC(=O)[C@H](CCC(=O)O)NC(=O)C(C)(C)NC(=O)[C@@H](N)Cc1ccc(O)cc1)[C@@H](C)O)[C@@H](C)O)[C@@H](C)CC)C(C)C)C(=O)N[C@@H](C)C(=O)N[C@@H](Cc1c[nH]c2ccccc12)C(=O)N[C@@H](CC(C)C)C(=O)N[C@H](C(=O)N[C@@H](CCCCN)C(=O)NCC(=O)N[C@@H](CCCCN)C(=O)N[C@@H](CCCCN)C(=O)N[C@@H](CCCCN)C(=O)N[C@@H](CCCCN)C(=O)N[C@@H](CCCCN)C(N)=O)C(C)C [Compound 060] (H-Y[Aib]EGTFTSDYSIYMEKEAVREFIAWLVKGKKKKK-NH2; N-terminus assumed),,,8.4,36.8
CC[C@H](C)[C@H](NC(=O)[C@H](Cc1ccccc1)NC(=O)[C@H](CCC(=O)O)NC(=O)[C@H](CCCNC(=N)N)NC(=O)[C@@H](NC(=O)[C@H](C)NC(=O)[C@H](CCC(=O)O)NC(=O)[C@H](CCCCN)NC(=O)[C@H](CCC(=O)O)NC(=O)[C@H](CCSC)NC(=O)[C@H](Cc1ccc(O)cc1)NC(=O)[C@@H](NC(=O)[C@H](CO)NC(=O)[C@H](Cc1ccc(O)cc1)NC(=O)[C@H](CC(=O)O)NC(=O)[C@H](CO)NC(=O)[C@@H](NC(=O)[C@H](Cc1ccccc1)NC(=O)[C@@H](NC(=O)CNC(=O)[C@H](CCC(=O)O)NC(=O)C(C)(C)NC(=O)[C@@H](N)Cc1ccc(O)cc1)[C@@H](C)O)[C@@H](C)O)[C@@H](C)CC)C(C)C)C(=O)N[C@@H](C)C(=O)N[C@@H](Cc1c[nH]c2ccccc12)C(=O)N[C@@H](CC(C)C)C(=O)N[C@H](C(=O)N[C@@H](CCCCN)C(=O)NCC(=O)NCC(=O)N1CCC[C@H]1C(=O)N[C@@H](CO)C(=O)N[C@@H](CO)C(=O)NCC(=O)N[C@@H](C)C(=O)N1CCC[C@H]1C(=O)N1CCC[C@H]1C(=O)N1CCC[C@H]1C(=O)N[C@@H](CO)C(=O)N[C@@H](CCCCN)C(N)=O)C(C)C [Compound 066],2.5 nM,,50,43.7
CCCCCCCCCCCCCCCC(=O)NCCCC[C@H](NC(=O)[C@@H](NC(=O)[C@H](C)NC(=O)[C@H](CCC(=O)O)NC(=O)[C@H](CCCCN)NC(=O)[C@H](CCC(=O)O)NC(=O)[C@H](CCSC)NC(=O)[C@H](Cc1ccc(O)cc1)NC(=O)[C@@H](NC(=O)[C@H](CO)NC(=O)[C@H](Cc1ccc(O)cc1)NC(=O)[C@H](CC(=O)O)NC(=O)[C@H](CO)NC(=O)[C@@H](NC(=O)[C@H](Cc1ccccc1)NC(=O)[C@@H](NC(=O)CNC(=O)[C@H](CCC(=O)O)NC(=O)C(C)(C)NC(=O)[C@@H](N)Cc1ccc(O)cc1)[C@@H](C)O)[C@@H](C)O)[C@@H](C)CC)C(C)C)C(=O)N[C@@H](CCC(=O)O)C(=O)N[C@@H](Cc1ccccc1)C(=O)N[C@H](C(=O)N[C@@H](C)C(=O)N[C@@H](Cc1c[nH]c2ccccc12)C(=O)N[C@@H](CC(C)C)C(=O)N[C@H](C(=O)N[C@@H](CCCCN)C(=O)NCC(N)=O)C(C)C)[C@@H](C)CC [Compound 067] (H-Y[Aib]EGTFTSDYSIYMEKEAVK(Palmitoyl)EFIAWLVKG-NH2),,,4.6,13.9
CCCCCCCCCCCCCCCC(=O)NCCCC[C@H](NC(=O)[C@H](CO)NC(=O)[C@@H]1CCCN1C(=O)[C@@H]1CCCN1C(=O)[C@@H]1CCCN1C(=O)[C@H](C)NC(=O)CNC(=O)[C@H](CO)NC(=O)[C@H](CO)NC(=O)[C@@H]1CCCN1C(=O)CNC(=O)CNC(=O)[C@H](CCCCN)NC(=O)[C@@H](NC(=O)[C@H](CC(C)C)NC(=O)[C@H](Cc1c[nH]c2ccccc12)NC(=O)[C@H](C)NC(=O)[C@@H](NC(=O)[C@H](Cc1ccccc1)NC(=O)[C@H](CCC(=O)O)NC(=O)[C@H](CCCNC(=N)N)NC(=O)[C@@H](NC(=O)[C@H](C)NC(=O)[C@H](CCC(=O)O)NC(=O)[C@H](CCCCN)NC(=O)[C@H](CCC(=O)O)NC(=O)[C@H](CCSC)NC(=O)[C@H](Cc1ccc(O)cc1)NC(=O)[C@@H](NC(=O)[C@H](CO)NC(=O)[C@H](Cc1ccc(O)cc1)NC(=O)[C@H](CC(=O)O)NC(=O)[C@H](CO)NC(=O)[C@@H](NC(=O)[C@H](Cc1ccccc1)NC(=O)[C@@H](NC(=O)CNC(=O)[C@H](CCC(=O)O)NC(=O)C(C)(C)NC(=O)[C@@H](N)Cc1ccc(O)cc1)[C@@H](C)O)[C@@H](C)O)[C@@H](C)CC)C(C)C)[C@@H](C)CC)C(C)C)C(N)=O [Compound 068],0.169 nM,0.037 nM,38.9,566
CC[C@H](C)[C@H](NC(=O)[C@H](Cc1ccccc1)NC(=O)[C@H](CCC(=O)O)NC(=O)[C@H](CCCNC(=N)N)NC(=O)[C@@H](NC(=O)[C@H](C)NC(=O)[C@H](CCC(=O)O)NC(=O)[C@H](CCCCN)NC(=O)[C@H](CCC(=O)O)NC(=O)[C@H](CCSC)NC(=O)[C@H](Cc1ccc(O)cc1)NC(=O)[C@@H](NC(=O)[C@H](CO)NC(=O)[C@H](Cc1ccc(O)cc1)NC(=O)[C@H](CC(=O)O)NC(=O)[C@H](CO)NC(=O)[C@@H](NC(=O)[C@H](Cc1ccccc1)NC(=O)[C@@H](NC(=O)CNC(=O)[C@H](CCC(=O)O)NC(=O)C(C)(C)NC(=O)[C@@H](N)Cc1ccc(O)cc1)[C@@H](C)O)[C@@H](C)O)[C@@H](C)CC)C(C)C)C(=O)N[C@@H](C)C(=O)N[C@@H](Cc1c[nH]c2ccccc12)C(=O)N[C@@H](CC(C)C)C(=O)N[C@H](C(=O)N[C@@H](CCCCN)C(=O)NCC(=O)NCC(=O)N1CCC[C@H]1C(=O)N[C@@H](CO)C(=O)N[C@@H](CO)C(=O)NCC(=O)N[C@@H](C)C(=O)N1CCC[C@H]1C(=O)N1CCC[C@H]1C(=O)N1CCC[C@H]1C(=O)N[C@@H](CO)C(=O)N[C@@H](CCCCNC(=O)CCCC[C@@H]1SC[C@@H]2NC(=O)N[C@@H]21)C(N)=O)C(C)C [Compound 074],1.05 nM,0.43 nM,39.5,90.7
